Assay results reported in PMC4624780 (PLoS ONE, 2015).
Square brackets hold non-standard residues; d marks the D form. Peptide text beside a SMILES is read from it. Ahx = NCCCCCC(=O)O

What was measured:
[1] = system: 3A N-terminal (1–52) peptide dimer; assay type: biochemical, foot-and-mouth disease virus (FMDV)

Row | Compound | inhibition of viral production (FMDV C-S8c1) | reduction of viral yield at concentrations lower than 100 μM (FMDV C-S8c1) | inhibition of viral production at 100 μM (FMDV C-S8c1; 24 h, 100 μM) | intensity of the N-ter dimer band, immunoblotting with polyclonal antibody 479 [1]
1 | CC[C@H](C)[C@H](NC(=O)[C@H](CC(C)C)NC(=O)[C@@H]1CCCN1C(=O)[C@H](CCCNC(=N)N)NC(=O)[C@H](CC(C)C)NC(=O)[C@H](CCC(=O)O)NC(=O)CCCCCNC(=O)[C@H](CCCNC(=N)N)NC(=O)[C@H](CCCNC(=N)N)NC(=O)[C@H](CCCNC(=N)N)NC(=O)[C@H](CCCNC(=N)N)NC(=O)[C@H](CCCNC(=N)N)NC(=O)[C@H](CCCNC(=N)N)NC(=O)[C@@H](N)CCCNC(=N)N)C(=O)N[C@@H](CCC(N)=O)C(=O)N[C@@H](CCC(N)=O)C(N)=O [Peptide R7-α2] (H-RRRRRRR[Ahx]ELRPLIQQ-NH2; N-terminus assumed) | dose dependent inhibition | significant reductions | ca. 50% | 
2 | ELRPLIQQ [α2] |  |  |  | impaired in vitro dimer formation
3 | FFEGMVHDS [α1] |  |  |  | impaired in vitro dimer formation
4 | RRRRRRRXFFEGMVHDS [Peptide R7-α1] | dose dependent inhibition |  |  | 
